In patent US20030087906A1, “NITROGEN SUBSTITUTED BIARYL PURINE DERIVATIVES AS POTENT ANTIPROLIFERATIVE AGENTS” (priority 2001, published 2003):
“And” between values parts separate entries of the source, which are not always exact repeats. Identical values can stand only once.

Tests used:
KM12 = test: NCI 60-cell line growth inhibition assay; format: cell-based; conditions: Homo sapiens
HeLa S-3 cells = test: Inhibition of cell growth of HeLa cells (SRB); format: cell-based, human; conditions: 2 days of treatment, replicate experiments
SK-MEL-5 = test: NCI 60-cell line growth inhibition assay; format: cell-based; conditions: Homo sapiens
SF-268 = test: NCI 60-cell line growth inhibition assay; format: cell-based; conditions: Homo sapiens
SN12C = test: NCI 60-cell line growth inhibition assay; format: cell-based; conditions: Homo sapiens; SN12C (Renal)
BT-549 = test: NCI 60-cell line growth inhibition assay; format: cell-based; conditions: Homo sapiens
OVCAR-8 = test: NCI 60-cell line growth inhibition assay; format: cell-based; conditions: Homo sapiens; OVCAR-8 (Ovarian)
UACC-257 = test: NCI 60-cell line growth inhibition assay; format: cell-based; conditions: Homo sapiens
MALME-3M = test: NCI 60-cell line growth inhibition assay; format: cell-based; conditions: Homo sapiens
K-562 = test: NCI 60-cell line growth inhibition assay; format: cell-based; conditions: Homo sapiens, K562
CyclinA/cdk2 = CyclinA/cdk2 (Homo sapiens, UniProt P24941); test: CyclinA/cdk2 protein kinase assay (histone H1 phosphorylation); conditions: IC50 CyclinA/cdk2, complex immunopurified from HeLa cells; 15 μM ATP; replicate experiments
A549/ATCC = test: NCI 60-cell line growth inhibition assay; format: cell-based; conditions: Homo sapiens
SK-OV-3 = test: NCI 60-cell line growth inhibition assay; format: cell-based; conditions: Homo sapiens
SR = test: NCI 60-cell line growth inhibition assay; format: cell-based; conditions: Homo sapiens; SR (Leukemia)
CyclinE/cdk2 = CyclinE/cdk2 (Homo sapiens, UniProt P24941); test: CyclinE/cdk2 protein kinase assay (histone H1 phosphorylation); conditions: IC50 CyclinE/cdk2, complex immunopurified from HeLa cells; 15 μM ATP; replicate experiments
M14 = test: NCI 60-cell line growth inhibition assay; format: cell-based; conditions: Homo sapiens
U251 = test: NCI 60-cell line growth inhibition assay; format: cell-based; conditions: Homo sapiens, U-251
IGROV1 = test: NCI 60-cell line growth inhibition assay; format: cell-based; conditions: Homo sapiens, IGROV-1
HCT-116 = test: NCI 60-cell line growth inhibition assay; format: cell-based; conditions: Homo sapiens
OVCAR-5 = test: NCI 60-cell line growth inhibition assay; format: cell-based; conditions: Homo sapiens
HCT-15 = test: NCI 60-cell line growth inhibition assay; format: cell-based; conditions: Homo sapiens
ACHN = test: NCI 60-cell line growth inhibition assay; format: cell-based; conditions: Homo sapiens
MDA-MB-435 = test: NCI 60-cell line growth inhibition assay; format: cell-based; conditions: Homo sapiens
CyclinB/cdk1 = target: T1, CyclinB/cdk1 (Homo sapiens, UniProt P06493); test: CyclinB/cdk1 protein kinase assay (histone H1 phosphorylation); format: biochemical; conditions: complex immunopurified from HeLa cells; 15 μM ATP; replicate experiments
T1 construct: Monoclonal antibody against cyclinB (GNS1) is added to the supernatant; endogenous in cells
T1 sequence (P06493 whole entry): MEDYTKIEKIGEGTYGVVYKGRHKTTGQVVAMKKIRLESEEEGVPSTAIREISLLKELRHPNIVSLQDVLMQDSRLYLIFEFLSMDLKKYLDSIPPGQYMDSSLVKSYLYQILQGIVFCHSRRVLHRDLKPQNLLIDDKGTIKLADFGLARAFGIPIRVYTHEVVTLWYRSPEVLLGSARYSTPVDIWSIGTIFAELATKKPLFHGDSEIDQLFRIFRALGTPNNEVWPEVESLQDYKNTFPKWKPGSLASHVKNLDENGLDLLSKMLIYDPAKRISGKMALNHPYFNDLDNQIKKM
T1 sequence (P14635 whole entry partner): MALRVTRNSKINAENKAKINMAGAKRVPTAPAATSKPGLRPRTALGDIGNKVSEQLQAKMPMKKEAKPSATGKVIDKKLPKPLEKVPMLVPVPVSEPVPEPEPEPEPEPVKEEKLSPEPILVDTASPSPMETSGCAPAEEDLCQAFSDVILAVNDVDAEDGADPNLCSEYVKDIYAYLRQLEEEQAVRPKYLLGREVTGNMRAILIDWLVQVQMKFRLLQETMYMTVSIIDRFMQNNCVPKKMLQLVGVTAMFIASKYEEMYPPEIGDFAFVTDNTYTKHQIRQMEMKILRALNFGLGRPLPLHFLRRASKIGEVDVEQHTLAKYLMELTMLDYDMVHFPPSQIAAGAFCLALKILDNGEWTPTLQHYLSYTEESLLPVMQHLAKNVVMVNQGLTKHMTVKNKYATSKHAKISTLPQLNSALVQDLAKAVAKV
Method: HeLa cells are blocked at the G1/S border by culturing in the presence of 2 mM thymidine for 20 h. The cells are then rinsed 3×in phosphate buffered saline and resuspended in regular medium. After 4 h of culture, the mitotic blocker, nocodazole is added to a final concentration of 75 ng/ml. […] The lysate is then clarified by centrifugation at 10,000×g for 10 min. The supernatant is collected and diluted 1:5 with Lysis Buffer. Monoclonal antibody against cyclinB (GNS1) is added to the supernatant to a final concentration of 5 μg/ml and shaken at 4° C. for 2 h. The immune complexes are then collected by the addition of 200 μl of protein agarose beads for 1 h. The beads are washed 4×in lysis buffer and 1×in kinase assay buffer.
Duplicate assays were performed at each concentration.

[1] = MTD (NCI in vivo evaluation, Table 8); conditions: mouse
CAKI-1 = test: NCI 60-cell line growth inhibition assay; format: cell-based; conditions: Homo sapiens
[2] = A549/ATCC (Non-Small Cell Lung)

| SMILES | GI50 (KM12; KM12 (Colon)) | GI50 (HeLa S-3 cells; Homo sapiens, HeLa S3, 48 h) | GI50 (SK-MEL-5; SK-MEL-5 (Melanoma)) | GI50 (SF-268; SF-268 (CNS)) | GI50 (SN12C) | GI50 (BT-549; BT-549 (Breast)) | GI50 (OVCAR-8) | GI50 (UACC-257; UACC-257 (Melanoma)) | GI50 (MALME-3M; MALME-3M (Melanoma)) | GI50 (K-562; K-562 (Leukemia)) | IC50 (CyclinA/cdk2) | GI50 (A549/ATCC; [2]) | GI50 (SR) | GI50 (M14; M14 (Melanoma)) | GI50 (U251; U251 (CNS)) | GI50 (IGROV1; IGROV1 (Ovarian)) | GI50 (HCT-116; HCT-116 (Colon)) | GI50 (OVCAR-5; OVCAR-5 (Ovarian)) | GI50 (HCT-15; HCT-15 (Colon)) | GI50 (ACHN; ACHN (Renal)) | other results |
| --- | --- | --- | --- | --- | --- | --- | --- | --- | --- | --- | --- | --- | --- | --- | --- | --- | --- | --- | --- | --- | --- |
| CC[C@H](CO)Nc1nc(NCc2ccc(-c3cccc([N+](=O)[O-])c3)cc2)c2ncn(C(C)C)c2n1 [Compound 48] | 20 nM | 300 nM | 170 nM | < 10 nM | 30 nM | 10 nM | 100 nM | 40 nM | 130 nM | 160 nM | 22000 nM and 6000 nM | < 10 nM | 160 nM | < 10 nM | 170 nM | 230 nM | 190 nM | 160 nM | 20 nM | 250 nM | GI50 (HeLa S-3 cells): 600 nM and 500 nM; GI50 (SK-OV-3; SK-OV-3 (Ovarian)): 1380 nM; IC50 (CyclinE/cdk2): 1000 nM and 5000 nM |
| CC(C)n1cnc2c(NCc3ccc(-c4ccsc4)cc3)nc(N[C@H]3CC[C@H](N)CC3)nc21 [Compound 12] | < 5 nM |  |  | < 5 nM | < 5 nM | 41 nM | 7.6 nM | 8 nM |  | < 5 nM | 2000 nM and 700 nM and 900 nM and 200 nM | < 5 nM | < 5 nM | < 5 nM | 7.8 nM | 13 nM | 8.9 nM | 17 nM | 170 nM | 39 nM | GI50 (MDA-MB-435; MDA-MB-435 (Breast)): < 5 nM; IC50 (CyclinB/cdk1): 3000 nM; MTD [1]: 3.1 mg/kg |
| CC(=O)N[C@H]1CC[C@H](Nc2nc(NCc3ccc(-c4ccccc4)nc3)c3ncn(C(C)C)c3n2)CC1 [Compound 87] | < 10 nM |  | 28 nM | < 10 nM | < 10 nM | 20 nM |  |  | 24 nM | 24 nM | 4000 nM and 2000 nM and 500 nM | < 10 nM | 32 nM | < 10 nM | 28 nM | 52 nM | 37 nM | 51 nM | 66 nM | 190 nM | GI50 (HeLa S-3 cells): 6 nM; GI50 (MDA-MB-435; MDA-MB-435 (Breast)): < 10 nM; IC50 (CyclinB/cdk1): 5000 nM; GI50 (CAKI-1; CAKI-1 (Renal)): 64 nM; GI50 (SK-OV-3; SK-OV-3 (Ovarian)): 350 nM; IC50 (CyclinE/cdk2): 1000 nM and 300 nM and 100 nM |
| CC[C@H](CO)Nc1nc(NCc2ccc(-c3ccc(OC)cc3)cc2)c2ncn(C(C)C)c2n1 [Compound 43] | 2300 nM | 4000 nM | 2100 nM | 3000 nM |  | 4000 nM | 3900 nM | 4800 nM | 3000 nM | 3100 nM |  | 4100 nM | 2200 nM | 2200 nM | 2300 nM | 3400 nM | 2100 nM | 3600 nM | 3900 nM | 3100 nM | GI50 (MDA-MB-435; MDA-MB-435 (Breast)): 2100 nM; GI50 (CAKI-1; CAKI-1 (Renal)): 3000 nM; GI50 (SK-OV-3; SK-OV-3 (Ovarian)): 72400 nM |
| CC[C@H](CO)Nc1nc(NCc2ccc(-c3ccccc3)cc2)c2ncn(C(C)C)c2n1 [Compound 73] |  | 300 nM |  |  |  |  |  |  |  |  |  |  |  |  |  |  |  |  |  |  | GI50 (KM12; Colon, KM12): 130 nM; GI50 (SK-MEL-5; Melanoma, SK-MEL-5): 250 nM; GI50 (SF-268; CNS, SF-268): 160 nM; GI50 (BT-549; Breast, BT-549): 250 nM; GI50 (MDA-MB-435; Breast, MDA-MB-435): 250 nM; GI50 (UACC-257; Melanoma, UACC-257): 160 nM; GI50 (MALME-3M; Melanoma, MALME-3M): 270 nM; GI50 (K-562; Leukemia, K-562): 160 nM; GI50 (CAKI-1; Renal, CAKI-1): 1660 nM; GI50 (A549/ATCC; Non-Small Cell Lung, A549/ATCC): 30 nM; GI50 (SK-OV-3; Ovarian, SK-OV-3): 950 nM; GI50 (M14; Melanoma, M14): 30 nM; MTD [1]: 100 mg/kg; GI50 (U251; CNS, U251): 320 nM; GI50 (IGROV1; Ovarian, IGROV1): 320 nM; GI50 (HCT-116; Colon, HCT-116): 200 nM; GI50 (OVCAR-5; Ovarian, OVCAR-5): 250 nM; GI50 (HCT-15; Colon, HCT-15): 180 nM; GI50 (ACHN; Renal, ACHN): 320 nM |
